The assay has as its target T1, 5-Lipoxygenase (Homo sapiens, UniProt P09917).
T1 construct: Granulozyten freiwilliger Spender; endogenous in cells; host or cells: granulocytes of volunteer donors
T1 sequence (P09917 1-674): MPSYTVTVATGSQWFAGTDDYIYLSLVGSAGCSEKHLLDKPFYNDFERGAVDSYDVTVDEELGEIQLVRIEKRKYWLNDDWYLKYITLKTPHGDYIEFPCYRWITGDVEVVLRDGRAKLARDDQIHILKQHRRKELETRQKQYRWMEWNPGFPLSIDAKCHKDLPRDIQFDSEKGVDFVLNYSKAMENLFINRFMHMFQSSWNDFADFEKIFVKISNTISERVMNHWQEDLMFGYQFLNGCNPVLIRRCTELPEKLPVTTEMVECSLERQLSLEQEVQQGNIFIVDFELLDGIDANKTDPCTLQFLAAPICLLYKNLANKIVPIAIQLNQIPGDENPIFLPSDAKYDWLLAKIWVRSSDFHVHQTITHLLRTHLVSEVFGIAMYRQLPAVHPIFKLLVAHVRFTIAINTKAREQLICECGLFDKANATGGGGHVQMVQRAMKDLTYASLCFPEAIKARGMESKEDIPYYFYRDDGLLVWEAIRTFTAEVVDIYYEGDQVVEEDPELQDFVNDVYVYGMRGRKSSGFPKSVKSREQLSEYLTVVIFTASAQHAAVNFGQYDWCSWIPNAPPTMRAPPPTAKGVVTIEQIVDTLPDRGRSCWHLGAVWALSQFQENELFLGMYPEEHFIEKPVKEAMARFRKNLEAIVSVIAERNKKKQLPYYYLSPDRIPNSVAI
Nature of the assay: 5-lipoxygenase test in granulocytes (HPLC of 5-lipoxygenase products). It is filed as cell-based. Particulars: granulocytes of volunteer donors, arachidonic acid and calcium ionophore, 37°C, 10 min, pH 7,4; read-out: IC50- Wert (Bildung von Biotransformationsprodukten der 5-Lipoxygenase). How it is done:
Granulozyten freiwilliger Spender [5-10 x 10^6 / ml] wurden in gepufferter physiologischer Kochsalzlösung [pH 7,4] mit Arachidonsäure [40µmol] und Calciumionophor [10µmol] und steigenden Konzentrationen [10nMol bis 10µMol] der Prüfsubstanzen, Avarol bzw. einer Avarol - Zusammensetzung gemäß Beispiel 3, bei 37°C 10 Minuten lang inkubiert. Anschließend wurden die Reaktion durch Zugabe von 1ml Methanol beendet, die Proben zentrifugiert und die Konzentration an Biotransformations-Produkten der 5-Lipoxygenase im Überstand per HPLC im UV bei 280 und 235nm analysiert. Avarol und die neue Zusammensetzung mit hohem Avarolgehalt, der Dysidea avara-Nativextrakt, hemmten die Bildung von Biotransformationsprodukten der 5-Lipoxygenase. Die IC50- Werte unterschieden sich aber auffällig deutlich. Während für Avarol ein IC50- Wert von 1,3 µM ermittelt wurde, der sich mit Literaturangaben deckt, hemmte die neue Zusammensetzung die Bildung von Produkten der 5-Lipoxygenase bereits mit einem IC50- Wert von 58 nM und war damit überraschend stärker wirksam als Avarol.

Usually IC50 stands for the midpoint of a concentration-inhibition curve. Turning to `CC1=CCC[C@H]2[C@](C)(Cc3cc(O)ccc3O)[C@@H](C)CC[C@]12C` [Avarol], the IC50 was 1300 nM.

Source of the values: patent publication EP1391197B1, “Process for preparation of compositions with a high content in avarol and their use” (KliniPharm GmbH, priority 2002, dated 2004).
